Experimental data: ChEMBL document CHEMBL3879905, “Methods of using macrocyclic modulators of the ghrelin receptor” (2013)
Calls of active or inactive are those of the source. No cut-off for these calls is given here.

Tests used:
[1] = tested on: Rattus norvegicus; assay: Induction of gastric emptying of high caloric meal in Wistar rat gastroparesis model at 0.08 to […] mg/kg, iv after 60 mins; type: functional, organism-based; settings: Stomach
[2] = species on record: Homo sapiens; assay: Selectivity for human GSHR1a over human motilin receptor
[3] = tested on: Rattus norvegicus; assay: Induction of gastric emptying of solid meal in Wistar rat gastroparesis model at 5 to 50 ug/kg, iv administered immediately post methylcellulose meal containing phenol red intake measured after 15 mins by colorimetric method; type: functional, organism-based; settings: Stomach
[4] = tested on: Rattus norvegicus; assay: Effect on pulsatile growth hormone release in plasma of free moving Sprague-Dawley rat at 5 ug/kg, iv administered at 1100 and 1300 […] during 6 hrs of sampling period measured every 15 mins over 6 hrs of sampling period by radioimmunoassay relative to vehicle-treated control; type: functional, organism-based
[5] = tested on: Rattus norvegicus; assay: Reversal of morphine-induced intestinal transit delaying in iv dosed Sprague-Dawley rat postoperative ileus model at 100 ug/kg, iv administered prior to 99mTC labeled methylcellulose meal intake measured after 15 mins by gamma counting method; type: functional, organism-based
[6] = tested on: Rattus norvegicus; assay: Induction of gastric emptying of solid meal in Sprague-Dawley rat postoperative ileus model at 100 to 300 ug/kg, iv administered prior to 99mTC labeled methylcellulose meal intake measured after 15 mins by gamma counting method relative to vehicle-treated control; type: functional, organism-based; settings: Stomach
[7] = molecular target: Growth hormone secretagogue receptor type 1 (Homo sapiens, UniProt Q92847); assay: Displacement of [125I]-Ghrelin from human GSHR1a transfected in HEK293 cell membranes after 30 mins by microplate scintillation and luminescence counting method
[8] = tested on: Rattus norvegicus; assay: Gastrokinetic activity in Wistar rat gastroparesis model at 100 ug/kg, iv administered immediately post phenol red containing methylcellulose meal intake measured after 15 mins by colorimetric method relative to vehicle-treated control; type: functional, organism-based
[9] = tested on: Rattus norvegicus; assay: Induction of gastric emptying of solid meal in iv dosed Wistar rat gastroparesis model administered immediately post methylcellulose meal containing phenol red intake measured after 15 mins by colorimetric method; type: functional, organism-based; settings: Stomach
[10] = tested on: Rattus norvegicus; assay: Induction of gastric emptying of solid meal in Wistar rat gastroparesis model at 100 ug/kg, iv administered immediately post phenol red containing methylcellulose meal intake measured after 15 mins by colorimetric method relative to vehicle-treated control; type: functional, Stomach
[11] = tested on: Rattus norvegicus; assay: Induction of gastric emptying of solid meal in Wistar rat gastroparesis model at 30 ug/kg, iv administered immediately post methylcellulose meal containing phenol red intake measured after 15 mins by colorimetric method relative to vehicle-treated control; type: functional, organism-based; settings: Stomach
[12] = tested on: Rattus norvegicus; assay: Gastrokinetic activity in Wistar rat gastroparesis model at 20 ug/kg, iv administered immediately post phenol red containing methylcellulose meal intake measured after 15 mins by colorimetric method relative to vehicle-treated control; type: functional, organism-based
[13] = tested on: Rattus norvegicus; assay: Induction of gastric emptying of solid meal in Wistar rat gastroparesis model at 20 ug/kg, iv administered immediately post phenol red containing methylcellulose meal intake measured after 15 mins by colorimetric method relative to vehicle-treated control; type: functional, Stomach

Chain of Growth hormone secretagogue receptor type 1 (Q92847 whole entry): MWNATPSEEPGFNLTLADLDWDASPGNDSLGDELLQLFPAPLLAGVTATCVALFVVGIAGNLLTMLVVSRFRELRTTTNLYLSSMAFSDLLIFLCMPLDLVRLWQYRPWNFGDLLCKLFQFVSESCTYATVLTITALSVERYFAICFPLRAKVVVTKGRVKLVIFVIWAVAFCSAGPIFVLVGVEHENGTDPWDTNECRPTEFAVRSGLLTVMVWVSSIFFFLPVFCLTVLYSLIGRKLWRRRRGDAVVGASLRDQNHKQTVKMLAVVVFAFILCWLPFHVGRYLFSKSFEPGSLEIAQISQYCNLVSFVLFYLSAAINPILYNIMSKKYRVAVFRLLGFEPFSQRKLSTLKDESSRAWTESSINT

| SMILES | Selectivity ratio [2] | other results |
| --- | --- | --- |
| C[C@@H]1C(=O)N[C@H](Cc2ccc(Cl)cc2)C(=O)NCCCc2ccccc2OCCN[C@@H](C2CC2)C(=O)N1C |  | Activity [1]: Active |
| CC[C@H](C)[C@@H]1NCCOc2ccccc2/C=C\CNC(=O)[C@H](Cc2ccc(Cl)cc2)NC(=O)C2(CCOC2)NC1=O (some centres undefined) | > 159 |  |
| CCC[C@@H]1NCCOc2ccccc2CCCNC(=O)[C@@H](Cc2c[nH]c3ccccc23)NC(=O)CN(C)C1=O | 71 |  |
| CCC(C)[C@H]1NCCOc2ccccc2[C@H]2C[C@@H]2CNC(=O)[C@H](Cc2cccc(Cl)c2)NC(=O)C2(CCCC2)NC1=O (some centres undefined) | 400 |  |
| C[C@H]1C(=O)N[C@@H](Cc2ccc(F)cc2)C(=O)NC[C@H]2C[C@@H]2c2ccccc2OCCN[C@H](C2CC2)C(=O)N1C | 450 |  |
| CCCCCCCC(=O)OC[C@H](NC(=O)[C@H](CO)NC(=O)CN)C(=O)N[C@@H](Cc1ccccc1)C(=O)N[C@@H](CC(C)C)C(=O)N[C@@H](CO)C(=O)N1CCC[C@H]1C(=O)N[C@@H](CCC(=O)O)C(=O)N[C@@H](Cc1cnc[nH]1)C(=O)N[C@@H](CCC(N)=O)C(=O)N[C@@H](CCCNC(=N)N)C(=O)N[C@H](C(=O)N[C@@H](CCC(N)=O)C(=O)N[C@@H](CCC(N)=O)C(=O)N[C@@H](CCCNC(=N)N)C(=O)N[C@@H](CCCCN)C(=O)N[C@@H](CCC(=O)O)C(=O)N[C@@H](CO)C(=O)N[C@@H](CCCCN)C(=O)N[C@@H](CCCCN)C(=O)N1CCC[C@H]1C(=O)N1CCC[C@H]1C(=O)N[C@@H](C)C(=O)N[C@@H](CCCCN)C(=O)N[C@@H](CC(C)C)C(=O)N[C@@H](CCC(N)=O)C(=O)N1CCC[C@H]1C(=O)N[C@@H](CCCNC(=N)N)C(=O)O)C(C)C |  | Activity [3]: Active; Activity [4]: Active |
| C[C@@H]1C(=O)N[C@H](Cc2ccc(F)cc2)C(=O)NCCCc2ncccc2OCCN[C@@H](C2CC2)C(=O)N1C | 714 |  |
| CC[C@H](C)[C@@H]1NC[C@H](C)Oc2ccccc2CCCNC(=O)[C@H](Cc2cccc(Cl)c2)NC(=O)C2(CCCC2)NC1=O | 300 |  |
| C[C@@H]1CN[C@@H](C2CC2)C(=O)N(C)[C@H](C)C(=O)N[C@H](Cc2ccc(F)cc2)C(=O)NCCCc2ccccc2O1 |  | Activity [5]: Dose-dependent effect; Activity [1]: Active; Activity [6]: Active; %max [7]: 96%; Activity [8]: Active; Activity [9]: Dose-dependent effect |
| CC(C)C[C@@H]1NCCOc2ccccc2/C=C\CNC(=O)[C@H](Cc2ccccc2)NC(=O)C2(CCCC2)NC1=O | 200 |  |
| CC(C)C[C@@H]1NCCOc2ccccc2/C=C\CNC(=O)[C@H](Cc2cccc(Cl)c2)NC(=O)C2(CCCC2)NC1=O | 1080 | Activity [1]: Active |
| CCC[C@@H]1NCCOc2ccccc2CCCNC(=O)[C@@H](Cc2ccccc2)NC(=O)CN(C)C1=O | 304 |  |
| C[C@@H]1C(=O)N[C@H](Cc2ccccc2)C(=O)NCCCc2ccc3c(c2)OC(CC3)CN[C@@H](C2CC2)C(=O)N1C (some centres undefined) |  | Activity [1]: Active |
| C[C@@H]1C(=O)N[C@H](Cc2ccc(Cl)cc2Cl)C(=O)NCCCc2ccccc2OCCN[C@@H](C2CC2)C(=O)N1C | > 5500 |  |
| CC(C)C[C@@H]1NCCOc2ccccc2/C=C\CNC(=O)[C@H](Cc2ccccc2Cl)NC(=O)C2(CCCC2)NC1=O | 1040 |  |
| CCC[C@@H]1NCCOc2ccccc2/C=C\CNC(=O)[C@@H](Cc2ccccc2)NC(=O)[C@@H](C)N(C)C1=O | 3400 |  |
| CC(C)[C@@H]1NCCOc2ccccc2/C=C\CNC(=O)[C@H](Cc2ccccc2)NC(=O)[C@@H](C)N(C)C1=O | > 1700 |  |

| SMILES | Selectivity ratio [2] | other results |
| --- | --- | --- |
| C[C@H](NC(=O)[C@@H](Cc1c[nH]c2ccccc12)NC(=O)[C@@H](N)Cc1cnc[nH]1)C(=O)N[C@H](Cc1c[nH]c2ccccc12)C(=O)N[C@@H](Cc1ccccc1)C(=O)N[C@@H](CCCCN)C(N)=O |  | Activity [12]: Active; Activity [13]: 40% |
| CC1COc2ccccc2CCCNC(=O)[C@@H](Cc2ccc(F)cc2)NC(=O)[C@@H](C)N(C)C(=O)[C@H](C2CC2)N1 (some centres undefined) | 1700 |  |
| CC[C@H](C)[C@@H]1NCCCCCCCCNC(=O)[C@H](Cc2cccc(Cl)c2)NC(=O)C2(CCCC2)NC1=O | 35 |  |
| O=C1NC/C=C/c2ccccc2OCCNC2(CCCC2)C(=O)NC2(CCCC2)C(=O)N[C@H]1Cc1ccccc1 | 222 |  |
| CC[C@H](C)[C@@H]1NCCOc2ccc(F)cc2CCCNC(=O)[C@H](Cc2cccc(Cl)c2)NC(=O)C2(CCCC2)NC1=O | 74 |  |
| C[C@H]1NC(=O)C2(CCCC2)NCCOc2ccccc2/C=C\CNC(=O)[C@H](Cc2cccc(Cl)c2)NC1=O | 450 |  |
| CC1(C)NC(=O)C2(CCCC2)NCCOc2ccccc2/C=C\CNC(=O)[C@H](Cc2cccc(Cl)c2)NC1=O | 346 |  |
| C[C@@H]1C(=O)N[C@H](Cc2ccc(F)cc2)C(=O)NCCCc2ccc(F)cc2OCCN[C@@H](C2CC2)C(=O)N1C | 2500 | Activity [1]: Active |
| C[C@@H]1C(=O)N[C@H](Cc2ccc(O)c(C(C)(C)C)c2)C(=O)NCCCc2ccccc2OCCN[C@@H](C2CC2)C(=O)N1C | 21 |  |
| CCC[C@@H]1NCCOc2ccccc2CCCNC(=O)[C@@H](Cc2ccc(O)cc2)NC(=O)CN(C)C1=O | > 100 |  |
| C[C@@H]1C(=O)N[C@H](Cc2ccc(F)cc2)C(=O)NCCCc2cc(NS(C)(=O)=O)ccc2OCCN[C@@H](C2CC2)C(=O)N1C | 250 |  |
| C[C@@H]1CN[C@@H](C2CC2)C(=O)N(C)[C@H](C)C(=O)N[C@H](Cc2ccc(Cl)cc2)C(=O)NCCCc2ccccc2O1 |  | Activity [1]: Active |
| C[C@@H]1CN[C@@H](C2CC2)C(=O)N(C)[C@H](C)C(=O)N[C@H](Cc2ccc(F)cc2)C(=O)NCCCc2ccc(F)cc2O1 |  | Activity [1]: Active |
| C[C@@H]1CN[C@@H](C2CC2)C(=O)N(C)[C@H](C)C(=O)N[C@H](Cc2ccc(Cl)cc2)C(=O)NCCCc2ccc(F)cc2O1 |  | Activity [1]: Active |
| CC(C)[C@@H]1NCCOc2ccccc2CCCNC(=O)[C@H](Cc2ccccc2)NC(=O)C2(CCCC2)NC1=O | 117 |  |
| CCCC[C@@H]1NCCOc2ccccc2CCCNC(=O)[C@@H](Cc2ccccc2)NC(=O)CN(C)C1=O | 142 |  |

The next lines start with results.

| Selectivity ratio [2] | SMILES | other results |
| --- | --- | --- |
| > 100 | CC[C@H](C)[C@@H]1NCCOc2ccccc2CCCNC(=O)[C@@H](Cc2ccccc2)NC(=O)[C@@H](C)N(C)C1=O |  |
| 28 | CC[C@H](C)[C@@H]1NCCCCCCCCNC(=O)[C@@H](Cc2ccccc2)NC(=O)[C@@H](C)N(C)C1=O |  |
| 13000 | CC[C@H](C)[C@@H]1NCCOc2ccccc2CCCNC(=O)[C@@H](Cc2cccc3ccccc23)NC(=O)[C@@H](C)N(C)C1=O |  |
| 28000 | CC[C@H](C)[C@@H]1NCCOc2ccccc2CCCNC(=O)[C@@H](Cc2ccc(Cl)cc2)NC(=O)[C@@H](C)N(C)C1=O | Activity [1]: Active; Activity [10]: 30 - 39%; Activity [11]: Active; Activity [8]: Active |
| > 7100 | CC[C@H](C)[C@@H]1NCCOc2ccccc2CCCNC(=O)[C@@H](Cc2ccc(OC)cc2)NC(=O)[C@@H](C)N(C)C1=O |  |
| 2500 | C[C@@H]1C(=O)N[C@H](Cc2ccccc2)C(=O)NCCCc2ccccc2OCCN[C@@H](C2CC2)C(=O)N1C |  |
| 3700 | CC[C@H](C)[C@@H]1NCCOc2ccccc2CCCNC(=O)[C@@H](Cc2ccccc2)NC(=O)[C@@H](C)N(CC)C1=O |  |
| 4300 | C[C@@H]1C(=O)N[C@H](Cc2ccccc2)C(=O)NCCCc2ccccc2OCCN[C@@H](C(C)(C)C)C(=O)N1C |  |
| 100 | CC[C@H](C)[C@@H]1NCCOc2ccc(C(=O)O)cc2CCCNC(=O)[C@@H](Cc2ccccc2)NC(=O)[C@@H](C)N(C)C1=O |  |
| 30000 | CC[C@H](C)[C@@H]1NCCOc2ccccc2CCCNC(=O)[C@@H](Cc2ccccc2Cl)NC(=O)[C@@H](C)N(C)C1=O |  |
| 3010 | CCC[C@@H]1NCCOc2ccccc2CCCNC(=O)[C@@H](Cc2ccccc2)NC(=O)[C@H](C)N(C)C1=O |  |
| > 1700 | CC(C)C1NCCOc2ccccc2/C=C\CNC(=O)C(Cc2ccccc2)NC(=O)C(C)N(C)C1=O (centres undefined) |  |
| > 1000 | CC[C@H](C)[C@@H]1NCCOc2ccccc2CCCNC(=O)[C@@H](Cc2cccs2)NC(=O)[C@@H](C)N(C)C1=O |  |
| 3040 | CC[C@H](C)[C@@H]1NCCOc2ccccc2CCCNC(=O)[C@@H](Cc2cccc(Cl)c2)NC(=O)[C@@H](C)N(C)C1=O |  |
| 4900 | CC[C@H](C)[C@@H]1NCCOc2ccccc2CCCNC(=O)[C@@H](Cc2ccc3ccccc3c2)NC(=O)[C@@H](C)N(C)C1=O |  |
| > 3300 | CC[C@H](C)[C@@H]1NCCOc2ccccc2/C=C\CNC(=O)[C@@H](Cc2ccccc2)NC(=O)[C@@H](C)N(C)C1=O |  |
| > 800 | CC[C@H](C)[C@@H]1NCCCc2ccccc2/C=C\CNC(=O)[C@@H](Cc2ccccc2)NC(=O)[C@@H](C)N(C)C1=O |  |
| > 7700 | CC[C@H](C)[C@@H]1NCCOc2ccccc2CCCNC(=O)[C@@H](Cc2ccc(F)cc2)NC(=O)[C@@H](C)N(C)C1=O |  |
